Patent publication US20130183686A1, “METHOD OF EVALUATING IMMUNOSUPPRESSION” (priority 2008, published 2013)
“Also recorded” adds a separate entry of the source.

Key:
Format in all cases: cell-based, human
NFAT [1] = assay: PMA/Ionomycin-induced NFAT translocation in healthy donor cells, imaging flow cytometry
NFkB = assay: PMA/Ionomycin-induced NFkB activation in healthy donor CD4+ cells in plasma, imaging flow cytometry; settings: increasing concentrations of Tacrolimus (FIG. 6)
NFAT [2] = assay: PMA/Ion-induced NFAT activation potential in CD4+ and CD8+ T cells of stable transplant recipients receiving tacrolimus
Method: Protocol to measure the NF-κB and/or NFAT activation potential in immunophenotypically defined cell populations: Obtain peripheral blood sample in sodium heparin container. Keep PBL sample at ambient room temperature. Prepare sufficient number of 15 mL polypropylene tubes (10-9152N, Niagara Scientific, Lancaster, N.Y.) to accommodate the number of variables to be tested. One tube is needed for the unstimulated control, one for the unstimulated cell line control (HL60 […] or Jurkat) and two (1 for HL60 and 1 for patient sample) for each of the stimulation conditions to be tested (e.g. PMA/Ion, TNFα, CD3/CD28, etc.). Aliquot 500 μl whole blood per tube for the patient samples. For cell line controls, add enough volume from culture flask to yield 2×10^6 cells/tube. […]
Cell line controls are washed in 1× Phosphate Buffered saline solution (1×PBS) (Mediatech, Herndon, Va.), and then fixed by adding 1 ml of a 4% solution of methanol free Formaldehyde (Polysciences, Warrington, Pa.) at room temperature for 10 minutes. Cells are washed twice in 1×PBS, spin, and resuspend cell pellets in residual volume (they are now ready to be probed for NF-κB and/or NFAT and are left at room temperature until whole blood samples are ready). […] Cells are now ready to be probed for NF-κB and/or NFAT. […] Samples are then washed in 1×PBS and are ready to be run on the imaging cell sorting machine. […]

NFAT1 = assay: PMA/Ionomycin-induced NFAT1 translocation in Jurkat cells incubated in patient plasma obtained after in vivo tacrolimus administration; settings: patient plasma obtained between 1 h and 12 h after tacrolimus administration (FIGS. 8 and 9)

## C=CC[C@@H]1/C=C(\C)C[C@H](C)C[C@H](OC)[C@H]2O[C@@](O)(C(=O)C(=O)N3CCCC[C@H]3C(=O)O[C@H](/C(C)=C/[C@@H]3CC[C@@H](O)[C@H](OC)C3)[C@H](C)[C@@H](O)CC1=O)[C@H](C)C[C@@H]2OC [tacrolimus]
NFAT [1]; healthy donor CD4+ cells in plasma, increasing concentrations of Tacrolimus (FIG. 6)
  NFAT translocation potential: dose-dependent decrease
NFAT [1]; healthy donor peripheral blood, CD4+ cells in culture medium, increasing concentration of tacrolimus (FIG. 5)
  inhibition of PMA/Ion-induced NFAT translocation: dose-dependent inhibition
NFAT [1]; in vitro, spiked into tissue culture media, plasma or whole blood, naive cells (Jurkat or healthy donor CD4+ or CD8+ T cells)
  correlation between extracellular concentrations and PMA/Ionomycin-induced NFAT1 activation potential: a strong correlation is observed
NFkB
  inhibitory effect on NFkB activation: less pronounced for NFkB but can be seen at higher drug concentrations
NFAT [2]; CD4+ and CD8+ cells of transplant recipients chronically exposed to tacrolimus
  correlation between trough tacrolimus levels and NFAT activation potential: Neither for CD4+ nor CD8+ cells was a correlation found; also recorded: no statistically significant dose-response relationship was observed
NFAT [2]; CD4+ or CD8+ cells of stable transplant recipients
  difference in NFAT activation potential before (0 h) and after (4 h) a dose: did not determine a significant difference
NFAT1
  inhibitory effect on NFAT in cells naive to previous tacrolimus exposure: closely mirrors that of the expected plasma levels; also recorded: a good dose-response was observed
